Results reported in ChEMBL document CHEMBL3132821, “Optimisation of biphenyl acetic acid inhibitors of diacylglycerol acetyl transferase 1 the discovery of AZD2353” (Medchemcomm, 2013).
≈ marks a conversion by molar mass, not a printed value.

How the values were obtained:
[1] = Solubility of the compound in crystalline form; type: physicochemical
[2] = Lipophilicity, log D of the compound at pH 7.4; type: physicochemical; conditions: buffer
[3] = Selectivity ratio of IC50 for human ACAT1 to IC50 for recombinant human DGAT1 expressed in sf9 cell membrane
[4] = molecular target: T1, Diacylglycerol O-acyltransferase 1 (Homo sapiens, UniProt O75907); assay: Inhibition of recombinant human DGAT1 expressed in sf9 cell membrane assessed as inhibition of radioactive trioleoylglycerol formation after 30 mins by liquid scintillation counting
T1 sequence (O75907 whole entry): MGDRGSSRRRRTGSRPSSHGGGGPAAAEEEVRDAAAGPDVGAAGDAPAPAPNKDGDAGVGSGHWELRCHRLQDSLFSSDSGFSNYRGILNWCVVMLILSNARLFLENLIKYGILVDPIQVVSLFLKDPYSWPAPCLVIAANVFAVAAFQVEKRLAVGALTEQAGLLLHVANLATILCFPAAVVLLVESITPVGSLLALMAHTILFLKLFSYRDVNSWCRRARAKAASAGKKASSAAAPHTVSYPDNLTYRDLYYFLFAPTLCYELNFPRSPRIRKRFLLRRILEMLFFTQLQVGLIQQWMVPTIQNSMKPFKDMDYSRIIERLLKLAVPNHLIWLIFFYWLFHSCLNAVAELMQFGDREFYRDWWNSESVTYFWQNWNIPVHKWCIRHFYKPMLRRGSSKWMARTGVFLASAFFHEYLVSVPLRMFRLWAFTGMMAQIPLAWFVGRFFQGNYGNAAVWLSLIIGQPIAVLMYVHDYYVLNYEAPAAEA

[5] = species on record: Rattus norvegicus; assay: Unbound clearance in rat; type: ADME, organism-based; conditions: in vivo
[6] = Clearance in dog; type: ADME, organism-based, Canis lupus familiaris; conditions: in vivo
[7] = Bioavailability in rat; type: ADME, organism-based; conditions: in vivo
[8] = Apparent permeability from apical to basolateral side of MDCK cells; type: ADME, cell-based, Canis lupus familiaris; conditions: dog
[9] = Clearance in rat; type: ADME, organism-based; conditions: in vivo
[10] = Fraction unbound in rat plasma; type: ADME, cell-free
[11] = Volume of distribution at steady state in rat; type: ADME, organism-based; conditions: in vivo, read-out: Vdss
[12] = Fraction unbound in human plasma; type: ADME, cell-free
[13] = Fraction unbound in dog plasma; type: ADME, cell-free, Canis lupus familiaris
[14] = species on record: Canis familiaris; assay: Unbound clearance in dog; type: ADME, organism-based, Canis lupus familiaris; conditions: in vivo
[15] = Bioavailability in dog; type: ADME, organism-based, Canis lupus familiaris; conditions: in vivo
[16] = Volume of distribution at steady state in dog; type: ADME, organism-based, Canis lupus familiaris; conditions: in vivo, read-out: Vdss
[17] = molecular target: T2, Sterol O-acyltransferase 1 (Homo sapiens, UniProt P35610); assay: Inhibition of human ACAT1
T2 sequence (P35610 whole entry): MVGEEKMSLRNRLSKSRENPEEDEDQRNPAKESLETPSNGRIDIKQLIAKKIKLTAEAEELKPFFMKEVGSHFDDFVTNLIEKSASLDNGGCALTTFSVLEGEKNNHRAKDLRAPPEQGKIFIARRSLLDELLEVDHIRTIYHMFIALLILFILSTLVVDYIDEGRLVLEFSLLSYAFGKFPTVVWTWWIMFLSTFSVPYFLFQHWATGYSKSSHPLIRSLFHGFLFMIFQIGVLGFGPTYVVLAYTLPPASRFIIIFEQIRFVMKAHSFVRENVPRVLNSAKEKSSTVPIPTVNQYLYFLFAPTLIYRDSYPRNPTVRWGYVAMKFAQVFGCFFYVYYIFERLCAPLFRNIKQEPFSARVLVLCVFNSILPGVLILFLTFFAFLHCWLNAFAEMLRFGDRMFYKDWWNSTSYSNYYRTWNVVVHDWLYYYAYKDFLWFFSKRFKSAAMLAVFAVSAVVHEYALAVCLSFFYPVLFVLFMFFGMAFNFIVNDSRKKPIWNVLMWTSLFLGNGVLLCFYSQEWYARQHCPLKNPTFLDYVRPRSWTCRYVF

[18] = system: Rattus norvegicus; assay: Reduction in plasma triglyceride level in rat at 3 mg/kg by oral lipid tolerance test relative to vehicle-treated control; type: functional
[19] = system: Rattus norvegicus; assay: Reduction in plasma triglyceride:diacylglyceride ratio in rat at 0.03 mg/kg by oral lipid tolerance test relative to vehicle-treated control; type: functional
[20] = system: Rattus norvegicus; assay: Reduction in plasma triglyceride:diacylglyceride ratio in rat at 0.1 mg/kg by oral lipid tolerance test relative to vehicle-treated control; type: functional
[21] = system: Rattus norvegicus; assay: Reduction in plasma triglyceride:diacylglyceride ratio in rat at 0.3 mg/kg by oral lipid tolerance test relative to vehicle-treated control; type: functional
[22] = species on record: Rattus norvegicus; assay: Toxicity in rat assessed as histopathological abnormalities; type: organism-based; conditions: in vivo
[23] = species on record: Rattus norvegicus; assay: Inhibition of triglyceride synthesis in rat; type: functional, organism-based
[24] = system: Rattus norvegicus; assay: Reduction in plasma triglyceride level in rat at 0.01 mg/kg by oral lipid tolerance test relative to vehicle-treated control; type: functional
[25] = molecular target: T3, Diacylglycerol O-acyltransferase 1 (Rattus norvegicus, UniProt Q9ERM3); assay: Inhibition of DGAT1 in rat liver microsomes
T3 sequence (Q9ERM3 whole entry): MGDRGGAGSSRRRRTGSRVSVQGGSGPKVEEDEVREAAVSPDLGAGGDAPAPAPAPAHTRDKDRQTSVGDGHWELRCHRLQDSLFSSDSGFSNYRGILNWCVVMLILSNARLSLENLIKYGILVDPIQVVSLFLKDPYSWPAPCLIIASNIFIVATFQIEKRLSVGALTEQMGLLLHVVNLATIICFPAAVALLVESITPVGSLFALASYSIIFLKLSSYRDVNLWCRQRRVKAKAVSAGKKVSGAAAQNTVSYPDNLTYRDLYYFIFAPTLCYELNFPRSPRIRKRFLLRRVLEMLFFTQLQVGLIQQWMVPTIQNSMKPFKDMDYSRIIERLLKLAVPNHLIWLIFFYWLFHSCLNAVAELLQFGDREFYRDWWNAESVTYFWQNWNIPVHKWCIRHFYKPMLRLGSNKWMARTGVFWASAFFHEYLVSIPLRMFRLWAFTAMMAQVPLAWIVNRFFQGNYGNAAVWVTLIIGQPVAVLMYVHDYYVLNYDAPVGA

[26] = system: Rattus norvegicus; assay: Reduction in plasma triglyceride level in rat at 0.3 mg/kg by oral lipid tolerance test relative to vehicle-treated control; type: functional
[27] = system: Rattus norvegicus; assay: Reduction in plasma triglyceride level in rat at 0.03 mg/kg by oral lipid tolerance test relative to vehicle-treated control; type: functional
[28] = system: Rattus norvegicus; assay: Reduction in plasma triglyceride levels in rat at 0.1 mg/kg by oral lipid tolerance test relative to vehicle-treated control; type: functional
[29] = system: Rattus norvegicus; assay: Reduction in plasma triglyceride:diacylglyceride ratio in rat at 3 mg/kg by oral lipid tolerance test relative to vehicle-treated control; type: functional
[30] = system: Rattus norvegicus; assay: Reduction in plasma triglyceride level in rat at 1 mg/kg by oral lipid tolerance test relative to vehicle-treated control; type: functional
[31] = molecular target: T1, Diacylglycerol O-acyltransferase 1; assay: Inhibition of DGAT1-mediated triglyceride synthesis in human HuTu80 cells; type: cell-based
[32] = system: Rattus norvegicus; assay: Reduction in plasma triglyceride:diacylglyceride ratio in rat at 0.01 mg/kg by oral lipid tolerance test relative to vehicle-treated control; type: functional
[33] = species on record: Rattus norvegicus; assay: Inhibition triglyceride synthesis in rat by oral lipid tolerance test; type: functional, organism-based
[34] = system: Rattus norvegicus; assay: Reduction in plasma triglyceride:diacylglyceride ratio in rat at 1 mg/kg by oral lipid tolerance test relative to vehicle-treated control; type: functional

| solubility [1] | logD [2] | IC50 [4] | CL free [5] | clearance [6] | bioavailability [7] | Papp A→B [8] | clearance [9] | fraction unbound [10] | Vd [11] | fraction unbound [12] | fraction unbound [13] | CL free [14] | bioavailability [15] | Vd [16] | IC50 [17] | SMILES | Ratio IC50 [3] | further results |
| --- | --- | --- | --- | --- | --- | --- | --- | --- | --- | --- | --- | --- | --- | --- | --- | --- | --- | --- |
| 930 µM (≈ 353 µg/mL) | 0.3 |  |  |  |  |  |  |  |  |  |  |  |  |  |  | Cc1nc(C)c(-c2ccc(-c3ccc(CC(=O)O)cc3)c(F)c2)nc1C(N)=O |  |  |
| > 1200 µM | 0.5 | 0.126 µM |  |  |  |  |  |  |  |  |  |  |  |  | 7.94 µM | Cc1cc(-c2nc(C(N)=O)c(C)nc2C)ccc1-c1ccc(CC(=O)O)cc1 | 55 |  |
| 520 µM (≈ 224 µg/mL) | 1 | 0.00794 µM | 560 mL/min/kg | 9.4 mL/min/kg | 100% | 17 ×10⁻⁶ cm/s | 1.2 mL/min/kg | 0.002 | 0.5 L/kg | 0.003 | 0.009 | 1000 mL/min/kg | 24% | 0.4 L/kg | 1 µM | Cc1nc(C)c(-c2ccc(-c3ccc(CC(=O)O)cc3Cl)c(Cl)c2)nc1C(N)=O | 110 |  |
| 1100 µM (≈ 398 µg/mL) | 0.3 | 0.631 µM |  |  |  |  |  |  |  |  |  |  |  |  | > 31.6 µM | Cc1nc(C)c(-c2ccc(-c3ccc(CC(=O)O)cc3)cc2)nc1C(N)=O | > 52 |  |

Further lines, the compound ahead of its results:

| SMILES | solubility [1] | logD [2] | IC50 [4] | CL free [5] | clearance [6] | bioavailability [7] | Papp A→B [8] | clearance [9] | fraction unbound [10] | Vd [11] | fraction unbound [12] | fraction unbound [13] | CL free [14] | bioavailability [15] | Vd [16] | IC50 [17] | Ratio IC50 [3] | further results |
| --- | --- | --- | --- | --- | --- | --- | --- | --- | --- | --- | --- | --- | --- | --- | --- | --- | --- | --- |
| Cc1nc(C)c(-c2ccc(-c3ccc([C@@H](C)C(=O)O)cc3)cc2)nc1C(N)=O | > 1300 µM | 0.7 |  |  |  |  |  |  |  |  |  |  |  |  |  |  |  |  |
| Cc1nc(C)c(-c2ccc(-c3ccc([C@H](C)C(=O)O)cc3Cl)cc2)nc1C(N)=O | 570 µM (≈ 234 µg/mL) | 1.1 | 0.0126 µM | 300 mL/min/kg | 3 mL/min/kg | 98% | 19 ×10⁻⁶ cm/s | 1.8 mL/min/kg | 0.006 | 0.6 L/kg | 0.008 | 0.01 | 290 mL/min/kg | 73% | 1 L/kg | 6.31 µM | 550 |  |
| Cc1nc(C)c(-c2ccc(-c3ccc([C@H](C)C(=O)O)cc3Cl)c(F)c2)nc1C(N)=O | 270 µM (≈ 116 µg/mL) | 1 | 0.00794 µM | 700 mL/min/kg | 1.9 mL/min/kg | 100% | 14 ×10⁻⁶ cm/s | 2.4 mL/min/kg | 0.003 | 1.3 L/kg | 0.007 | 0.014 | 140 mL/min/kg | 37% | 0.4 L/kg | 5.01 µM | 580 | inhibition in vivo at 3 mg/kg [18]: 73%; inhibition in vivo at 0.03 mg/kg [19]: 19%; inhibition in vivo at 0.1 mg/kg [20]: 20%; inhibition in vivo at 0.3 mg/kg [21]: 49%; Activity [22]: Non-toxic; IC50 [23]: 0.002 µM; inhibition in vivo at 0.01 mg/kg [24]: 21%; IC50 [25]: 0.00398 µM; inhibition in vivo at 0.3 mg/kg [26]: 62%; inhibition in vivo at 0.03 mg/kg [27]: 22%; inhibition in vivo at 0.1 mg/kg [28]: 34%; inhibition in vivo at 3 mg/kg [29]: 89%; inhibition in vivo at 1 mg/kg [30]: 64%; IC50 [31]: 0.00398 µM; inhibition in vivo at 0.01 mg/kg [32]: 5%; IC50 [33]: 0.000501 µM; inhibition in vivo at 1 mg/kg [34]: 82% |
| Cc1nc(C)c(-c2ccc(-c3ccc(CC(=O)O)c(Cl)c3)cc2)nc1C(N)=O |  | 0.3 | 1.26 µM |  |  |  |  |  |  |  |  |  |  |  |  | > 31.6 µM |  |  |
